Assay results taken from paper PMC7363035 (ACS infectious diseases, 2020).
Like-named read-outs stand apart in the source and are kept apart here. Marks after values point to notes of the source that are not given here.

Assays:
Mouse liver microsome = format: in vitro ADME; details: mouse liver microsomes; data generated via Medicines for Malaria Venture
[1] = Log D in octanol/PBS pH 7.4; format: physicochemical
Solubility in PBS pH 7.4 = format: physicochemical
[2] = Mouse pharmacokinetics after a single oral dose; format: in vivo
[3] = human liver microsomes; cited from earlier work
[4] = cited from earlier work
P. berghei = details: cited from earlier work
[5] = cited from earlier work; remark: listed apart in the source
[6] = single dose of 50 mg/kg by oral gavage, male CD-1 mice
[7] = male, CD-1, mouse, plasma, po, 50 mg/kg

Compound | MLM CLint (Mouse liver microsome) | MLM T1/2 (Mouse liver microsome) | Log D in octanol/PBS; pH 7.4 ([1]; data generated via Medicines for Malaria Venture) | Solubility in PBS pH 7.4 (Solubility in PBS pH 7.4) | fold lower systemic exposure than 8c or 8n ([2]; mouse PK study with oral dosing) | AUClast [2, 6] | Cmax [2, 6] | Tmax [2, 6] | HLM CLint [3] | HLM T1/2 [3] | Solubility in PBS pH 7.4 [4] | cures (P. berghei; Experiment 1, PO 6 mg/kg/day (4 days), female Swiss Webster mice, cured = parasitemia undetectable at day 30) | logD [1] | AUC(0-t) [2, 7] | Tmax [2, 7] | Log D in octanol/PBS; pH 7.4 [5] | effective single dose in the P. berghei model (P. berghei; single dose)
O=C(O[C@@H]1CCC[C@]2(C1)OOC1(O2)C2CC3CC(C2)CC1C3)N1CCNCC1 (stereo partly drawn) [8e, (1R,3”R)-Dispiro[adamantane-2,3’-[1,2,4]trioxolane-5’,1”-cyclohexan]-3”-yl piperazine-1-carboxylate] | 321 µL/min/mg | 4.3 min | 3.25 | 157.0 μM | ~ three-fold | 1070 ± 127 ng·h/mL | 223 ± 25 ng/mL | 2 h | – | – | – | – | – | – | – | – | –
CC(C)(N)CNC(=O)C[C@H]1CC[C@]2(CC1)OO[C@]1(O2)C2CC3CC(C2)CC1C3 [OZ277, arterolane] | – | – | – | – | – | – | – | – | <7 µL/min/mg | >1 h | 504 μM | 4/5 | – | – | – | – | –
c1cc([C@H]2CC[C@]3(CC2)OO[C@]2(O3)C3CC4CC(C3)CC2C4)ccc1OCCN1CCOCC1 [OZ439, artefenomel] | – | – | – | – | – | – | – | – | – | – | 0.181^b μM | – | 5.81 | 52600 ± 4810 ng·h/mL | 2 h | 5.5 | 20 mg/kg
